Results reported in ChEMBL document CHEMBL1141411, “Structural characterization of daptomycin analogues A21978C1-3(d-Asn11) produced by a recombinant Streptomyces roseosporus strain” (2007).
≈ marks a conversion by molar mass, not a printed value.

Test system: Staphylococcus aureus
Test: Antibacterial activity against Staphylococcus aureus 42 by broth microdilution method
Format: functional

MIC [µM]	SMILES
0.15 (≈ 0.253 µg/mL)	CCC(C)CCCCCCCCC(=O)N[C@@H](Cc1c[nH]c2ccccc12)C(=O)N[C@H](CC(N)=O)C(=O)N[C@@H](CC(=O)O)C(=O)N[C@@H]1C(=O)NCC(=O)N[C@@H](CCCN)C(=O)N[C@@H](CC(=O)O)C(=O)N[C@H](C)C(=O)N[C@@H](CC(=O)O)C(=O)NCC(=O)N[C@H](CC(N)=O)C(=O)N[C@@H]([C@H](C)CC(=O)O)C(=O)N[C@@H](CC(=O)c2ccccc2N)C(=O)O[C@@H]1C (some centres undefined)
0.3 (≈ 0.503 µg/mL)	CC(C)CCCCCCCCC(=O)N[C@@H](Cc1c[nH]c2ccccc12)C(=O)N[C@H](CC(N)=O)C(=O)N[C@@H](CC(=O)O)C(=O)N[C@@H]1C(=O)NCC(=O)N[C@@H](CCCN)C(=O)N[C@@H](CC(=O)O)C(=O)N[C@H](C)C(=O)N[C@@H](CC(=O)O)C(=O)NCC(=O)N[C@H](CC(N)=O)C(=O)N[C@@H]([C@H](C)CC(=O)O)C(=O)N[C@@H](CC(=O)c2ccccc2N)C(=O)O[C@@H]1C
0.6 (≈ 0.997 µg/mL)	CCC(C)CCCCCCC(=O)N[C@@H](Cc1c[nH]c2ccccc12)C(=O)N[C@H](CC(N)=O)C(=O)N[C@@H](CC(=O)O)C(=O)N[C@@H]1C(=O)NCC(=O)N[C@@H](CCCN)C(=O)N[C@@H](CC(=O)O)C(=O)N[C@H](C)C(=O)N[C@@H](CC(=O)O)C(=O)NCC(=O)N[C@H](CC(N)=O)C(=O)N[C@@H]([C@H](C)CC(=O)O)C(=O)N[C@@H](CC(=O)c2ccccc2N)C(=O)O[C@@H]1C (some centres undefined)
0.6 (≈ 0.972 µg/mL)	CCCCCCCCCC(=O)N[C@@H](Cc1c[nH]c2ccccc12)C(=O)N[C@H](CC(N)=O)C(=O)N[C@@H](CC(=O)O)C(=O)N[C@@H]1C(=O)NCC(=O)N[C@@H](CCCN)C(=O)N[C@@H](CC(=O)O)C(=O)N[C@H](C)C(=O)N[C@@H](CC(=O)O)C(=O)NCC(=O)N[C@H](CO)C(=O)N[C@@H]([C@H](C)CC(=O)O)C(=O)N[C@@H](CC(=O)c2ccccc2N)C(=O)O[C@@H]1C
